Measurements reported in ChEMBL document CHEMBL1629433, “Synthesis and pharmacological evaluation of the stereoisomers of 3-carba cyclic-phosphatidic acid” (Bioorg Med Chem Lett, 2010).
Active and inactive are the calls of the source. No cut-off for these calls is given here.

Experiments:
Autotaxin [1] = target: T1, Autotaxin (Homo sapiens, UniProt Q13822); assay: Inhibition of recombinant ATX mediated hydrolysis of FS-3
Autotaxin [2] = target: T1, Autotaxin; assay: Inhibition of recombinant ATX mediated hydrolysis of FS-3 at 0.5 to 2 times IC50
B16-F10 = assay: Antitumor activity against mouse B16-F10 cells grafted in C57/BL6 mouse assessed as inhibition of lung metastases of cancer cells at 0.5 mg/kg/day, ip administered for 10 days and measured on day 21; assay type: functional, organism-based
[3] = target: Lysophosphatidic acid receptor 5 (Homo sapiens) (UniProt Q9H1C0); assay: Agonist activity at LPA5 receptor expressed in rat B103 cells assessed as calcium mobilization at >1 uM; assay type: functional, cell-based
Lysophosphatidic acid receptor 5 (Homo sapiens), sequence (Q9H1C0 whole entry): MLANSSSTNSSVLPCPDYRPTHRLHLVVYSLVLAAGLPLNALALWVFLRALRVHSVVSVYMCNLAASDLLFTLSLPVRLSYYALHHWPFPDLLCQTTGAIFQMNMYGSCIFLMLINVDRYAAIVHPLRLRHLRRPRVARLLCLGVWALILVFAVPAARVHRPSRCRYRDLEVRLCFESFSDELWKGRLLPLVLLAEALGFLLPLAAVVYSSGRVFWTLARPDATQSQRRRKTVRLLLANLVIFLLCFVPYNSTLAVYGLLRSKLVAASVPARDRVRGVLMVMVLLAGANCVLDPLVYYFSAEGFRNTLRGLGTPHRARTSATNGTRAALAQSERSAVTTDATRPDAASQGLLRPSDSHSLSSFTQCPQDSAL

| Compound | Ki (Autotaxin [1]) | inhibition (Autotaxin [2]) | inhibition (B16-F10) | Activity [3] |
| --- | --- | --- | --- | --- |
| CCCCCCCCCCCCCCCCCC(=O)OC[C@@H]1CCP(=O)(O)O1 | 1.6 µM | Active | Active | Active |
| CCCCCCCCCCCCCCCCCC(=O)OCC1CCP(=O)(O)O1 (racemic) | – | – | Active | – |
| CCCCCCCCCCCCCCCCCC(=O)OC[C@H]1CCP(=O)(O)O1 | 0.8 µM | Active | Active | Active |
